# Measurements as given in patent US9315546B2, “Growth hormone secretatogue receptor antagonists and uses thereof” (The Administrators of the Tulane Educational Fund, priority 2010, dated 2016).
# Several values for one entry are separate records, joined by “and”; a condition that tells them apart may be missing. Equal values may be shown once. Where a SMILES comes first, the peptide text is derived from it. Where no end group is shown, it is not given here. [ ]: non-standard residue; d: D form. d2Nal = N[C@H](Cc1ccc2ccccc2c1)C(=O)O
# Legend:
# [1] = target: T1, Ghrelin/GHRP/GHS Receptor (Rattus norvegicus, UniProt O08725); assay: GH release from isolated pituitary glands, pituitary incubation method; type: cell-based
# Procedure: Hormonal activities were obtained from in vitro studies using pituitaries of 20 day old CD-1 strain Sprague Dawley female rats. Two pituitaries were incubated for a total of 4-6 hours. Medium was removed each hour for RIA of GH level and fresh medium was added again. After two one hour preincubation periods (P1-P2), the vehicle/peptides were added to two one hour incubations (I3-I4). Peptide activity was calculated as the change in the hormonal level (delta) between I3+I4 and P2. For antagonist activity, the incubation was continued for 2 additional hours (I5-I6) where both the peptide and a stimulator of GH secretion was added and the antagonist activity was calculated as the change in the hormonal level (delta) between I5+I6 and P2. The peptides were assayed in triplicate and the hormone was assayed in duplicate. Each value recorded represents the mean of 6. The GH RIA reagents were distributed by the NIH. Control data was collected from isolated pituitary glands treated with only the corresponding vehicle in the absence of peptide or stimulator. Control stimulated data was collected from isolated pituitary glands treated with stimulator alone in the absence of any peptide.
# [2] = target: T2, hypothalamic ghrelin receptor (Rattus norvegicus, UniProt O08725); assay: Food intake and body weight change after icv ghrelin analogs in adult male rats; type: in vivo; design: from tissue; host or cells: whole animal (adult male rats); conditions: ghrelin analog 10 μg icv, monitored hourly over 5 h
# Procedure: (§1) In vivo effects were measured on spontaneous and ghrelin-stimulated GH secrtion over a 6-h sampling period, and food intake monitored hourly over a 5-h period and body weight change over 24 h.
# [3] = target: T2, hypothalamic ghrelin receptor; assay: Spontaneous and ghrelin-stimulated GH secretion after icv ghrelin analogs in adult male rats; type: in vivo; design: from tissue; host or cells: whole animal (adult male rats); conditions: ghrelin analog 10 μg icv, 6-h sampling
# Procedure: as §1
# [4] = target: T3, human ghrelin receptor type 1a (GHS-R1a) (Homo sapiens, UniProt Q92847); assay: Receptor binding, displacement of radiolabelled ghrelin, HEK-293 cell membranes; conditions: for % INH, Ghrelin/GHS Antagonist Receptor Activity: concentration not given
# T3 construct: expressed in transfected cells; host or cells: HEK-293 cells (membranes)
# [5] = target: T1, Ghrelin/GHRP/GHS Receptor; assay: In vivo GH release in rat after i.v. peptide (serum GH by RIA)
# Procedure: For the in vivo assay of GH Release in rat, immature female Sprague Dawley rats were obtained from Charles River from Wilmington, Mass. After arrival they were housed at 25° C. with a 14:10 h light:dark cycle. Water and Purina rat chow were available at libitum. Pups were weaned at 21 days of age.
# Immature twenty six day old female Sprague Dawley rats, 3-6 rats per treatment dose, were pretreated with pentobarbital 20 minutes before iv injection of vehicle/peptide or peptide plus stimulator. Injection was made as a 0.1 ml solution. For the non-pentobarbital treated rat assay, peptides were administered iv into the tail vein of conscious rats. All animals were sacrificed by guillotine after iv peptide or vehicle. Trunk blood was collected at +10-15 minutes […], allowed to clot, centrifuged and serum stored until assayed for GH levels by RIA. The GH RIA reagents were distributed by the NIH. Control data was collected from rats treated with only the corresponding vehicle in the absence of peptide or stimulator. Control stimulated data was collected from rats treated with stimulator alone in the absence of any peptide.
# [6] = target: T1, Ghrelin/GHRP/GHS Receptor; assay: GH release from cell culture of pituitary cells; type: cell-based; design: After dispersion, the cells were collected by centrifugation, wash with DMEM and placed into culture well; endogenous in cells; host or cells: dispersed primary rat pituitary cells, 4 days in culture
# Procedure: In vitro GH Release-Female rats of the CD-1 strain were housed in a constant temperature room at 24° C. with 14 h light and 10 h darkness. The rats were fed Purina Rat chow and water at libitum. All studies were started between 0800-1000 hours. Pituitaries of mature female Sprague Dawley rats were rapidly removed after decapitation, neurointermediate lobe discarded and then placed in a pH 7.4 buffer. The pituitaries were cut into ˜3-mm pieces and then transferred to a flask containing HEPS buffer with trypsin and incubated at 37° C. Cells were triturated several times during this period. After dispersion, the cells were collected by centrifugation, wash with DMEM and placed into culture well. Cell cultures were maintained for 4 days at 37° with 8% CO2 added to the incubator atmosphere. After 4 days in culture, cells were washed with lactated Ringer's solution adjusted to pH 7.2-7.4 and then vehicle, peptide alone or peptide plus stimulator was added to media. Incubation time was 60-120 minutes after which media was removed from each well for GH determination. The GH RIA reagents were distributed by the NIH. Control data was collected from cell cultures treated with only the corresponding vehicle in the absence of peptide or stimulator. Control stimulated data was collected from cell cultures treated with stimulator alone in the absence of any peptide.
# [7] = peptide antagonist 30 μg/ml + stimulator His-DTrp-Ala-Trp-DPhe-Lys-NH2 10 ng/ml
# [8] = Table 3, peptide alone 1 μg i.v.
# [9] = Table 3, peptide alone 3 μg i.v.
# [10] = Table 3, peptide alone 10 μg i.v.
# [11] = Table 3, peptide alone 30 μg i.v.
# T1 sequence (O08725 whole entry): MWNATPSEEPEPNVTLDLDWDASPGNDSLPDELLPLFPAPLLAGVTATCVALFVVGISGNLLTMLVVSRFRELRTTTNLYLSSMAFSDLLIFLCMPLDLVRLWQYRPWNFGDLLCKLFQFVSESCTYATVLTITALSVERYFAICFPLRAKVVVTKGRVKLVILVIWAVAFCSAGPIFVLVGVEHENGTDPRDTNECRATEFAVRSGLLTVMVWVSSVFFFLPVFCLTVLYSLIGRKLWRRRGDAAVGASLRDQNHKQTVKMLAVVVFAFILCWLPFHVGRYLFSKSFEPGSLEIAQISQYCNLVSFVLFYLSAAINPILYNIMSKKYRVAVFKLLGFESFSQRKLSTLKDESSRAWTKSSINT
# T3 sequence (Q92847 whole entry): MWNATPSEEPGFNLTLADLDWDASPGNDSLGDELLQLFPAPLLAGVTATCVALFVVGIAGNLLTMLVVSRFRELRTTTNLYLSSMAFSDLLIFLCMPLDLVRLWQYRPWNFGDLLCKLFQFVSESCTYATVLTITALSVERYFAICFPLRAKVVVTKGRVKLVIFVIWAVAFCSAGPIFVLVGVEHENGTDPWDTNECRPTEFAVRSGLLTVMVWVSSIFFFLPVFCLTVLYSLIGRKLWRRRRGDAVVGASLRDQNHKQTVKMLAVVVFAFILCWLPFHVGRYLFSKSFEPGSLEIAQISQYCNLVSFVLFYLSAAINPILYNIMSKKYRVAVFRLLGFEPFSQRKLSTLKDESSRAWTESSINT
# T2 sequence (O08725 whole entry): as the sequence (O08725 whole entry) above
molecule,measurement,setting,value
Y[dW]AW[dF]-NH2 [reference compound],Stimulated Control GH release (stimulator *S alone),"[1]; Table 12, *S = Tyr-DTrp-Ala-Trp-DPhe-NH2 0.3 μg/ml",2218 ± 194 ng/mL
Gly-Met-Ala-Gly-Ser-(Dap-Palmityl)-Phe-Leu-Ser-Pro-Glu-His-NH2 (GMAGS[Dap(palmityl)]FLSPEH-NH2) [#6],(cumulative) food intake,[2],did not inhibit GH secretion or decreased food intake
same,spontaneous growth hormone secretion / plasma GH levels,[3],did not inhibit
DesaminoTyr-DTrp-Ser-Trp-DPhe-NH2 [10-DesaminoTyr-DTrp-Ser-Trp-DPhe-NH2],Stimulated GH release,[1]; [7],3258 ± 682 ng/mL
"CSCC[C@H](NC(=O)CN)C(=O)N[C@@H](C)C(=O)N[C@H](C)C(=O)N[C@H](Cc1ccc2ccccc2c1)C(=O)N[C@@H](C)C(=O)N[C@@H](Cc1c[nH]c2ccccc12)C(=O)N[C@H](Cc1ccccc1)C(=O)N[C@@H](CCCCN)C(N)=O [#5, GlyMetAlaDAlaDβNalAlaTrpDPheLysNH2] (HELM PEPTIDE1{G.M.A.[dA].[O=C([C@@H](Cc1ccc2ccccc2c1)N[*:1])[*:2]].A.W.[dF].K.[am]}$$$$V2.0; N-terminus assumed)",IC50,[4],296 nM
same,Ki,[4],166 nM
same,"% INH, Ghrelin/GHS Antagonist Receptor Activity",[4],94%
"CSCC[C@H](NC(=O)CN)C(=O)N[C@@H](C)C(=O)N[C@H](C)C(=O)N[C@H](Cc1ccc2ccccc2c1)C(=O)N[C@H](CCCCN)C(=O)N[C@@H](Cc1c[nH]c2ccccc12)C(=O)N[C@H](Cc1ccccc1)C(=O)N[C@@H](CCCCN)C(N)=O [#6a, GlyMetAlaDAlaDβNalDLysTrpDPheLysNH2] (HELM PEPTIDE1{G.M.A.[dA].[O=C([C@@H](Cc1ccc2ccccc2c1)N[*:1])[*:2]].[dK].W.[dF].K.[am]}$$$$V2.0; N-terminus assumed)",IC50,[4],707 nM
same,Ki,[4],395 nM
same,"% INH, Ghrelin/GHS Antagonist Receptor Activity",[4],89%
CSCC[C@H](NC(=O)CN)C(=O)N[C@@H](C)C(=O)NCC(=O)N[C@@H](CO)C(=O)N[C@@H](Cc1c[nH]c2ccccc12)C(=O)N[C@@H](Cc1ccccc1)C(=O)N[C@@H](CC(C)C)C(=O)N[C@@H](CO)C(=O)N1CCC[C@H]1C(=O)N[C@@H](CCC(=O)O)C(=O)N[C@@H](Cc1c[nH]cn1)C(=O)N[C@@H](CCC(N)=O)C(=O)N[C@@H](CCCNC(=N)N)C(=O)N[C@H](C(=O)N[C@@H](CCC(N)=O)C(=O)N[C@@H](CCC(N)=O)C(=O)N[C@@H](CCCNC(=N)N)C(=O)N[C@@H](CCCCN)C(=O)N[C@@H](CCC(=O)O)C(=O)N[C@@H](CO)C(=O)N[C@@H](CCCCN)C(=O)N[C@@H](CCCCN)C(=O)N1CCC[C@H]1C(=O)N1CCC[C@H]1C(=O)N[C@@H](C)C(=O)N[C@@H](CCCCN)C(=O)N[C@@H](CC(C)C)C(=O)N[C@@H](CCC(N)=O)C(=O)N1CCC[C@H]1C(=O)N[C@@H](CCCNC(=N)N)C(=O)O)C(C)C [#7],IC50,[4],284 nM
same,Ki,[4],159 nM
same,"% INH, Ghrelin/GHS Antagonist Receptor Activity",[4],86%
Y[dW][dW]FF-NH2 [12-Tyr-DTrp-DTrp-Phe-Phe-NH2],Stimulated GH release,[1]; [7],-167 ± 157 ng/mL
H[dW][dK]W[dF]K-NH2 [6-His-DTrp-DLys-Trp-DPhe-Lys-NH2],Stimulated GH release,[1]; peptide antagonist 1 μg/ml + stimulator His-DTrp-Ala-Trp-DPhe-Lys-NH2 10 ng/ml,324 ± 181 ng/mL
H[dW]FW[dF]K-NH2 [8-His-DTrp-Phe-Trp-DPhe-Lys-NH2],Unstimulated Basal GH release,[5]; [8],67 ± 14 ng/mL
same,Unstimulated Basal GH release,[5]; [9],141 ± 53 ng/mL
same,Unstimulated Basal GH release,[5]; [10],197 ± 70 ng/mL
same,Unstimulated Basal GH release,[5]; [11],509 ± 48 ng/mL
[dA][d2Nal][dK][dW]FK-NH2 [3-DAla-DβNal-DLys-DTrp-Phe-Lys-NH2],Stimulated GH release (P + S),"[5]; Pentobarbital Rats, peptide 30 μg i.v. + stimulator 1 μg",2864 ± 828 ng/mL
same,Stimulated GH release (P + S),"[5]; Pentobarbital Rats, peptide 100 μg i.v. + stimulator 1 μg",1198 ± 114 ng/mL
same,Unstimulated GH release (−S),"[5]; Pentobarbital Rats, peptide alone 30 μg i.v.",323 ± 50 ng/mL
same,Unstimulated GH release (−S),"[5]; Pentobarbital Rats, peptide alone 100 μg i.v.",812 ± 6 ng/mL
same,Stimulated GH release,[5]; peptide antagonist 30 μg i.v. + stimulator 1 μg,2884 ± 828 ng/mL
same,Stimulated GH release,[5]; peptide antagonist 100 μg i.v. + stimulator 1 μg,1198 ± 114 ng/mL
[dA][d2Nal]AW[dF]K-NH2 [reference compound],Stimulated Control GH release (stimulator alone),"[5]; DAla-DβNal-Ala-Trp-DPhe-Lys-NH2 0.3 μg, rat, Table 2",1412 ± 400 ng/mL and 2253 ± 252 ng/mL
same,Stimulated Control GH release (stimulator alone),"[5]; DAla-DβNal-Ala-Trp-DPhe-Lys-NH2 1 μg, rat, Table 2",3214 ± 276 ng/mL and 3105 ± 429 ng/mL and 2406 ± 288 ng/mL and 2825 ± 134 ng/mL and 3104 ± 429 ng/mL
same,Stimulated Control GH release (stimulator alone),"[5]; Table 4, Non-Pentobarbital Rats, DAla-DβNal-Ala-Trp-DPhe-Lys-NH2 10 μg",72 ± 9 ng/mL
same,Stimulated Control GH release (stimulator alone),"[5]; Table 4, Pentobarbital Rats, DAla-DβNal-Ala-Trp-DPhe-Lys-NH2 0.3 μg",5052 ± 511 ng/mL
same,Stimulated Control GH release (stimulator alone),"[5]; Table 4, Pentobarbital Rats, DAla-DβNal-Ala-Trp-DPhe-Lys-NH2 1 μg",4950 ± 98 ng/mL
same,Stimulated Control GH release (stimulator alone),"[6]; Table 6, DAla-DβNal-Ala-Trp-DPhe-Lys-NH2 10 ng/ml",2420 ± 0 ng/mL and 2811 ± 229 ng/mL and 2385 ± 8 ng/mL
same,Stimulated Control GH release (stimulator alone),"[6]; Table 9, DAla-DβNal-Ala-Trp-DPhe-Lys-NH2 1 ng/ml",1232 ± 34 ng/mL
same,Stimulated Control GH release (stimulator alone),"[6]; Table 10, DAla-DβNal-Ala-Trp-DPhe-Lys-NH2 1 ng/ml",905 ± 6 ng/mL and 1153 ± 36 ng/mL and 1216 ± 26 ng/mL and 1461 ± 58 ng/mL and 1016 ± 18 ng/mL and 859 ± 4 ng/mL and 1060 ± 24 ng/mL
same,Stimulated Control GH release (stimulator alone),"[6]; Table 11, DAla-DβNal-Ala-Trp-DPhe-Lys-NH2 1 ng/ml",905 ± 6 ng/mL and 947 ± 11 ng/mL and 947 ± 33 ng/mL and 1016 ± 18 ng/mL
[d2Nal]AW[dF]A-NH2 [1-DβNal-Ala-Trp-DPhe-Ala-NH2],Unstimulated Basal GH release,[5]; [8],623 ± 60 ng/mL
same,Unstimulated Basal GH release,[5]; [9],694 ± 70 ng/mL
same,Unstimulated Basal GH release,[5]; [10],654 ± 58 ng/mL
same,Unstimulated Basal GH release,[5]; [11],713 ± 71 ng/mL
Tyr-DAla-Sar-NMePhe-NH2 [2-Tyr-DAla-Sar-NMePhe-NH2],Stimulated GH release (P + S),"[5]; Non-Pentobarbital Rats, peptide 30 μg i.v. + stimulator 10 μg",24 ± 6 ng/mL
same,Unstimulated GH release (−S),"[5]; Non-Pentobarbital Rats, peptide alone 30 μg i.v.",18 ± 4 ng/mL
Alaψ[CH2NH]His-DTrp-Ala-Trp-DPhe-Lys-NH2,Unstimulated Basal GH release,"[5]; Table 5, peptide alone 1 μg i.v.",127 ± 32 ng/mL
same,Unstimulated Basal GH release,"[5]; Table 5, peptide alone 3 μg i.v.",147 ± 37 ng/mL
